Like-named read-outs stand apart in the source and are kept apart here.
What was measured:
[1] = Pharmacokinetics in female BALB/c nude mice bearing A375 xenografts, 1 day dosing (PK and PD study): plasma, tumor and brain concentrations, AUC; assay type: in vivo; conditions: 100 mg/kg p.o. QD × 1 day; for Mean Concentration in Brain ± SEM / Mean Concentration in Plasma ± SEM: BQL: below the lower limit of quantitation
Excerpt: The concentrations of Dabrafenib, Compound 26 and Compound 141 in the treatment of female BALB/c nude mice bearing A375 xenografts are shown in Table 62-Table 72 and FIG. 52-FIG. 73.

[2] = system: A375 human melanoma xenografts; test: Example 9 efficacy study Part I in A375 human melanoma xenografts (tumor volume, T/C, TGI); assay type: in vivo, BALB/c nude mice; conditions: 100 mg/kg, p.o., QD × 14 days
Procedure: For efficacy study Part I, agents were tested in the A375 human melanoma xenografts. Compound 218 and Compound 157 were administered to BALB/c nude mice bearing A375 xenografts from day 0 and dosed twice a day (BID) for 14 days. Compound 218 and Compound 157 were dosed at 10 mg/kg via p.o.. Dabrafenib was administered from day 1 daily (QD) for 14 days and dosed at 100 mg/kg via p.o..
(§1) The A375 tumor cells were maintained in vitro in DMEM medium supplemented with 10 fetal bovine serum and 1% Penicillin-Streptomycin at 37° C. in an atmosphere of 5% CO2 in air. The tumor cells were routinely subcultured twice weekly. The cells growing in an exponential growth phase were harvested and counted for tumor inoculation.
Each mouse was inoculated subcutaneously at the right flank with A375 cells (5×10^6) in 0.2 mL of PBS supplemented with Matrigel (PBS: Matrigel=1:1) for tumor development. Animals were grouped for the treatment when the average tumor volume reached 243 mm^3 for efficacy study part I and 413 mm^3 for the PK and PD study part I on day 15, and 271 mm^3 for efficacy part II and 443 mm^3 for the PK and PD part II on day 18, and 463 mm^3 for the PK and PD study part III on day 21. The test articles administration and the animal numbers in each group are shown in the above experimental tables.
(§2) Prior to the onset of drug treatment, mice were measured for tumor size in two dimensions using a caliper, and the tumor volume (mm^3) was calculated using formula V=0.5 a×b^2 where a and b are the long and short diameters of the tumor in mm, respectively. Mice were randomized into different treatment groups based on the tumor volume.
(§3) The major endpoint was to see if the tumor growth could be delayed or mice could be cured. The tumor size was then used for calculations of T/C value. The T/C value (in percent) is an indication of antitumor effectiveness; T and C are the mean volumes of the treated and control groups, respectively on specified day.
(§4) TGI was calculated for each group using the formula: TGI (%)=[1−(Ti−T0)/(Ci−C0)]×100; Ti is the average tumor volume of a treatment group on a given day, To is the average tumor volume of the treatment group on the day of treatment start, Ci is the average tumor volume of the vehicle control group on the same day with Ti, and C0 is the average tumor volume of the vehicle group on the day of treatment start.

[3] = system: A375 human melanoma xenografts; test: Example 7 efficacy study in A375 human melanoma xenografts (tumor volume, T/C, TGI); assay type: in vivo, BALB/c nude mice; conditions: 100 mg/kg, p.o., QD × 14 days
Procedure: For efficacy study, agents were tested in the A375 human melanoma xenografts. Compound 118, Compound 156, and Compound 180 were administered to BALB/c nude mice bearing A375 xenografts from day 0 and dosed p.o. twice per day (BID). Compound 141 was administered from day 0 and dosed p.o. twice per day (BID) or dosed p.o. daily (QD) from day 1. Compound 141, Compound 118, Compound 156, and Compound 180 were dosed at 10 mg/kg for 14 days. The known BRAF inhibitor Dabrafenib was used as a positive control. Dabrafenib was administered from day 1 and dosed p.o. daily (QD) for 14 days and dosed at 100 mg/kg.
as §1, with “[…]” for “10”
Each mouse was inoculated subcutaneously at the right flank with A375 tumor cells (5×10^6) in 0.2 mL of PBS with Matrigel (PBS: Matrigel=1:1) supplemented for tumor development. Animals were grouped when the average tumor volume reached 246 mm^3 for efficacy study and 390 mm^3 for PKPD study on day 17 after tumor inoculation. The test articles administration and the animal numbers in each group are shown in the above experimental tables.
as §2, §3
as §4, with “T0” for “To”

[4] = mouse, brain, po, 100 mg/kg, read-out: Mean Concentration in Brain ± SEM
[5] = mouse, plasma, po, 100 mg/kg, read-out: Mean Concentration in Plasma ± SEM
[6] = mouse, tumor, po, 100 mg/kg, read-out: Mean Concentration in Tumor ± SEM

Mean Concentration in Brain ± SEM ([1]; 10 h): BQL^a
Mean Concentration in Brain ± SEM ([1]; 24 h): BQL
Mean Concentration in Plasma ± SEM ([1]; 36 h): BQL
Mean Concentration in Plasma ± SEM ([1]; 48 h): BQL
concentration at 1 h [1, 4]: 1040 ± 349 ng/g
concentration at 4 h [1, 4]: 6.13 ng/g
concentration at 48 h ([1]; mouse, brain, po, 100 mg/kg, 48 h, read-out: Mean Concentration in Brain ± SEM): 15.2 ng/g
AUC at 24 h ([1]; mouse, brain, po, read-out: Brain AUC at 24 hours, Average): 1580 ng·h/mL
concentration at 0.25 h ([1]; mouse, plasma, po, 100 mg/kg, 0.25 h, read-out: Mean Concentration in Plasma ± SEM): 62200 ± 10900 ng/mL
concentration at 0.5 h ([1]; mouse, plasma, po, 100 mg/kg, 0.5 h, read-out: Mean Concentration in Plasma ± SEM): 44700 ± 11600 ng/mL
concentration at 1 h [1, 5]: 7490 ± 1360 ng/mL
concentration at 2 h ([1]; mouse, plasma, po, 100 mg/kg, 2 h, read-out: Mean Concentration in Plasma ± SEM): 844 ± 198 ng/mL
concentration at 4 h [1, 5]: 110 ± 37.6 ng/mL
concentration at 8 h ([1]; mouse, plasma, po, 100 mg/kg, 8 h, read-out: Mean Concentration in Plasma ± SEM): 55.6 ± 15.5 ng/mL
concentration at 10 h ([1]; mouse, plasma, po, 100 mg/kg, 10 h, read-out: Mean Concentration in Plasma ± SEM): 25.9 ± 2.09 ng/mL
concentration at 24 h ([1]; mouse, plasma, po, 100 mg/kg, 24 h, read-out: Mean Concentration in Plasma ± SEM): 0.616 ng/mL
AUC at 24 h ([1]; mouse, plasma, po, read-out: Plasma AUC at 24 hours, Average): 32100 ng·h/mL
concentration at 1 h [1, 6]: 8660 ± 4660 ng/g
concentration at 4 h [1, 6]: 442 ± 257 ng/g
concentration at 10 h ([1]; mouse, tumor, po, 100 mg/kg, 10 h, read-out: Mean Concentration in Tumor ± SEM): 18 ± 1.88 ng/g
concentration at 24 h ([1]; mouse, tumor, po, 100 mg/kg, 24 h, read-out: Mean Concentration in Tumor ± SEM): 253 ng/g
concentration at 48 h ([1]; mouse, tumor, po, 100 mg/kg, 48 h, read-out: Mean Concentration in Tumor ± SEM): 4.66 ng/g
AUC at 24 h ([1]; mouse, tumor, po, read-out: Tumor AUC at 24 hours, Average): 1680 ng·h/mL
Structure (SMILES): CC(C)(C)c1nc(-c2cccc(NS(=O)(=O)c3c(F)cccc3F)c2F)c(-c2ccnc(N)n2)s1 [Dabrafenib, dabrafenib, reference compound]
Tumor Volume Trace Over Time ([2]; Day 0, Mean ± SEM): 243 ± 4 mm^3
Tumor Volume Trace Over Time ([2]; Day 3, Mean ± SEM): 370 ± 17 mm^3
Tumor Volume Trace Over Time ([2]; Day 7, Mean ± SEM): 445 ± 13 mm^3
Tumor Volume Trace Over Time ([2]; Day 10, Mean ± SEM): 475 ± 23 mm^3
Tumor Volume Trace Over Time ([2]; Day 14, Mean ± SEM): 521 ± 31 mm^3
Tumor Size on PG-D14 ([2]; Mean ± SEM): 521 ± 31 mm^3
TGI (Tumor Growth Inhibition) ([2]; PG-D14): 74.65%
T/C ([2]; PG-D14, treated/control average tumor volume): 38.87%
T/C ([3]; PG-D14): 55.8%
TGI ([3]; PG-D14): 54.3%
Tumor Size on PG-D14 (mean ± SEM) ([3]; PG-D14): 741 ± 40 mm^3
Tumor Volume (mean ± SEM) ([3]; day 0): 246 ± 10 mm^3
Tumor Volume (mean ± SEM) ([3]; day 3): 394 ± 20 mm^3
Tumor Volume (mean ± SEM) ([3]; day 7): 515 ± 30 mm^3
Tumor Volume (mean ± SEM) ([3]; day 10): 608 ± 21 mm^3
Tumor Volume (mean ± SEM) ([3]; day 14): 741 ± 40 mm^3

— patent publication US20260297060A1, “COMPOUNDS FOR THE DEGRADATION OF MUTANT BRAF” (C4 THERAPEUTICS, INC., priority 2023, published 2026)
